Laboratory results: ChEMBL document CHEMBL3044639, “Synthesis and biologic activities of some novel heterocyclic chalcone derivatives” (Med Chem Res, 2013)
The source made the active and inactive calls. No cut-off for these calls is given here.

Key:
[1] = system: Radical scavenging activity; test: Antioxidant activity assessed as DPPH radical scavenging activity after 20 min by microplate ELISA reader analysis; type: functional
Staphylococcus aureus [2] = test: Antibacterial activity against Staphylococcus aureus 1199B overexpressing NorA assessed as reduction of ciprofloxacin MIC at MEC after 18 hr by broth checkerboard method relative to control; type: functional
Rattus norvegicus = test: Anti-inflammatory activity in Wistar Rattus norvegicus (rat) assessed as inhibition of carrageenan-induced paw edema at 100 mg/kg, po administered 45 min prior to carrageenan-challenge measured 45 min to 4 hr post carrageenan-challenge relative to control; type: functional
Staphylococcus aureus [3] = test: Antibacterial activity against Staphylococcus aureus 1199B overexpressing NorA assessed as growth inhibition after 18 hr by broth checkerboard method; type: functional; settings: read-out: MEC
HeLa = test: Cytotoxicity against Homo sapiens (human) HeLa cells assessed as growth inhibition after 48 hr by MTT assay; type: functional, cell-based
PC-3 = test: Cytotoxicity against Homo sapiens (human) PC3 cells assessed as growth inhibition after 48 hr by MTT assay; type: functional, cell-based; settings: PC-3, 48 h
MOLT-4 = test: Cytotoxicity against Homo sapiens (human) MOLT4 cells assessed as growth inhibition after 48 hr by MTT assay; type: functional, cell-based; settings: MOLT-4, 48 h
HL-60 = test: Cytotoxicity against Homo sapiens (human) HL60 cells assessed as growth inhibition after 48 hr by MTT assay; type: functional, cell-based; settings: HL-60, 48 h

Row | SMILES | Activity [1] | fold change (FC) (Staphylococcus aureus [2]) | inhibition (Rattus norvegicus) | minimal effective concentration (Staphylococcus aureus [3]) [µg/mL] | IC50 (HeLa) [µM] | IC50 (PC-3) [µM] | IC50 (MOLT-4) [µM] | IC50 (HL-60) [µM] | inhibition in vivo at 100 mg/kg (Rattus norvegicus) [%]
1 | COc1cccc(OC)c1/C=C/C(=O)c1ccc[nH]1 | inactive | 0 | inactive | > 50 |  |  |  |  | 
2 | O=C(/C=C/c1ccc2c(c1)OCO2)c1ccco1 | inactive | 0 | inactive | > 50 |  |  |  |  | 
3 | O=C(/C=C/c1c(Cl)cccc1Cl)c1ccc[nH]1 | inactive | 0 | inactive | > 50 |  |  |  |  | 
4 | O=C(/C=C/c1ccccc1Br)c1ccco1 | inactive | 0 | inactive | > 50 |  |  |  |  | 
5 | O=C(/C=C/c1ccc(Cl)cc1Cl)c1ccc[nH]1 | inactive | 0 | inactive | > 50 | 26 | 22 | 13 | 22 | 
6 | COc1cc(/C=C/C(=O)c2ccco2)cc(OC)c1OC | inactive | 0 | inactive | > 50 |  |  |  |  | 
7 | O=C(/C=C/c1cccc([N+](=O)[O-])c1)c1ccc[nH]1 | inactive | 0 | inactive | > 50 | 32 | 23 | 22 | 20 | 
8 | O=C(/C=C/c1cccc([N+](=O)[O-])c1)c1ccco1 | inactive | 0 | inactive | > 50 | 22 | 14 | 18 | 14 | 
9 | O=C(/C=C/c1cccc(Cl)c1Cl)c1ccc[nH]1 | inactive | 0 | inactive | > 50 |  |  |  |  | 
10 | COc1ccc(/C=C/C(=O)c2ccco2)cc1OC | inactive | 0 |  | > 50 |  |  |  |  | 23
11 | O=C(/C=C/c1ccccc1)c1ccc[nH]1 | inactive | 0 | inactive | > 50 | > 100 | > 100 | > 100 | > 100 | 
12 | O=C(/C=C/c1ccccc1Br)c1ccc[nH]1 | inactive | 4 | inactive | 25 | 44 | 44 | 38 | 42 | 
13 | COc1ccc(/C=C/C(=O)c2ccco2)cc1 | inactive | 0 | inactive | > 50 |  |  |  |  | 
14 | COc1cccc(/C=C/C(=O)c2ccc[nH]2)c1 | inactive | 0 | inactive | > 50 | 30 | 24 | 28 | 16 | 
15 | O=C(/C=C/c1ccc(Br)cc1)c1ccco1 | inactive | 2 | inactive | 25 | > 100 | 58 | 62 | 48 | 
16 | O=C(/C=C/c1cc([N+](=O)[O-])ccc1Cl)c1ccc[nH]1 | inactive | 0 | inactive | > 50 | 68 | 55 | 42 | 38 | 
17 | COc1ccc(/C=C/C(=O)c2ccc[nH]2)cc1OC | inactive | 0 | inactive | > 50 |  |  |  |  | 
18 | O=C(/C=C/c1ccc(Br)cc1)c1ccc[nH]1 | inactive | 0 | inactive | > 50 | > 100 | 44 | 49 | 32 | 
19 | COc1ccc(OC)c(/C=C/C(=O)c2ccco2)c1 | inactive | 0 | inactive | > 50 |  |  |  |  | 

Row | SMILES | Activity [1] | fold change (FC) (Staphylococcus aureus [2]) | inhibition (Rattus norvegicus) | minimal effective concentration (Staphylococcus aureus [3]) [µg/mL] | IC50 (HeLa) [µM] | IC50 (PC-3) [µM] | IC50 (MOLT-4) [µM] | IC50 (HL-60) [µM] | inhibition in vivo at 100 mg/kg (Rattus norvegicus) [%]
20 | O=C(/C=C/c1ccc([N+](=O)[O-])cc1)c1ccc[nH]1 | inactive | 0 | inactive | > 50 | 26 | 13 | 15 | 14 | 
21 | CN(C)c1ccc(/C=C/C(=O)c2ccc[nH]2)cc1 | inactive | 0 | inactive | > 50 |  |  |  |  | 
22 | O=C(/C=C/c1ccc2c(c1)OCO2)c1ccc[nH]1 | inactive | 0 | inactive | > 50 |  |  |  |  | 
23 | O=C(/C=C/c1ccccc1Cl)c1ccc[nH]1 | inactive | 4 | inactive | 25 |  |  |  |  | 
24 | O=C(/C=C/c1ccc(Cl)cc1)c1ccc[nH]1 | inactive | 0 | inactive | > 50 | 25 | 18 | 22 | 13 | 
25 | O=C(/C=C/c1cc([N+](=O)[O-])ccc1Cl)c1ccco1 | inactive | 0 | inactive | > 50 | > 100 | 62 | 72 | 58 | 
26 | O=C(/C=C/c1ccc(Cl)cc1)c1ccco1 | inactive | 0 | inactive | > 50 | 38 | 29 | 23 | 19 | 
27 | COc1cccc(/C=C/C(=O)c2ccc[nH]2)c1OC | inactive | 4 | inactive | 25 |  |  |  |  | 
28 | O=C(/C=C/c1ccc(F)cc1)c1ccc[nH]1 | inactive | 2 | inactive | 25 |  |  |  |  | 
29 | O=C(/C=C/c1ccc(F)cc1)c1ccco1 | inactive | 0 | inactive | > 50 |  |  |  |  | 
30 | O=C(/C=C/c1ccccc1)c1ccco1 | inactive | 0 | inactive | > 50 | > 100 | > 100 | > 100 | 100 | 
31 | O=C(/C=C/c1ccc([N+](=O)[O-])cc1)c1ccco1 | inactive | 0 | inactive | > 50 |  |  |  |  | 
32 | COc1ccc(CCN(C)CCCC(C#N)(c2ccc(OC)c(OC)c2)C(C)C)cc1OC (configuration not stated) [VERAPAMIL] |  | 2 |  | 50 |  |  |  |  | 
33 | COc1ccc(/C=C/C(=O)c2ccc[nH]2)cc1 | inactive | 2 | inactive | 25 |  |  |  |  | 
34 | O=C(/C=C/c1ccccc1Cl)c1ccco1 | inactive | 0 | inactive | > 50 | 26 | 14 | 25 | 12 | 
35 | COc1ccc(/C=C/C(=O)c2ccc[nH]2)c(OC)c1 | inactive | 2 | inactive | 25 |  |  |  |  | 
36 | CN(C)c1ccc(/C=C/C(=O)c2ccco2)cc1 | inactive | 4 | inactive | 12.5 | 20 | 13 | 12 | 12 | 
37 | COc1cccc(/C=C/C(=O)c2ccco2)c1OC | inactive | 4 | inactive | 25 |  |  |  |  | 
38 | COC(=O)[C@H]1[C@H]2C[C@@H]3c4[nH]c5cc(OC)ccc5c4CCN3C[C@H]2C[C@@H](OC(=O)c2cc(OC)c(OC)c(OC)c2)[C@@H]1OC [RESERPINE] |  | 0 |  | 25 |  |  |  |  | 
